In patent publication US20180170941A1 (priority 2016, published 2018):

Molecular target: T1, α5β3γ2 GABAA receptors (Ltk cell membranes) (Homo sapiens, UniProt P18507+P31644)
T1 construct: membranes
Experiment: Binding activity of test compounds on GABAAR: inhibition of [3H]Ro15-1788 binding
Settings: GABA α5 Binding Ki Values, inhibition of [3H]Ro15-1788 binding; reported as ranges
In short: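 Membranes from dexamethasone-induced Ltk cells (α5 line: 0.5 μM, 1 day); binding with [3H]Ro15-1788 for 1 h at 4 °C in 50 mM KH2PO4, 1 mM EDTA, 0.2 M KCl, pH 7.4, 0.2 mg/ml α5 protein. Nonspecific binding defined by 10 μM diazepam; filtration, scintillation counting, triplicates.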

T1 sequence (P31644 32-462): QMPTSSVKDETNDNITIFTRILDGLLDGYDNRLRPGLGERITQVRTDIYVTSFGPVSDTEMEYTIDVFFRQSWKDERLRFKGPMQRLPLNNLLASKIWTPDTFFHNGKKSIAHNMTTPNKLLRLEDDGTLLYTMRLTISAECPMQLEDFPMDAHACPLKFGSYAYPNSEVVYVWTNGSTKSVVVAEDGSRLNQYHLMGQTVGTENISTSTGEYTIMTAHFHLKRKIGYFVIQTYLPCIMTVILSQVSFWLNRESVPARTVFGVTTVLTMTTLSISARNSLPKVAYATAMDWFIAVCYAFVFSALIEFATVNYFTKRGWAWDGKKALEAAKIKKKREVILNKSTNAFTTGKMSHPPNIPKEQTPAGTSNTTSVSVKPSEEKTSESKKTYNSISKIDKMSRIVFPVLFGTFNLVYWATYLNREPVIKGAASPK
T1 sequence (P28472 26-473 partner): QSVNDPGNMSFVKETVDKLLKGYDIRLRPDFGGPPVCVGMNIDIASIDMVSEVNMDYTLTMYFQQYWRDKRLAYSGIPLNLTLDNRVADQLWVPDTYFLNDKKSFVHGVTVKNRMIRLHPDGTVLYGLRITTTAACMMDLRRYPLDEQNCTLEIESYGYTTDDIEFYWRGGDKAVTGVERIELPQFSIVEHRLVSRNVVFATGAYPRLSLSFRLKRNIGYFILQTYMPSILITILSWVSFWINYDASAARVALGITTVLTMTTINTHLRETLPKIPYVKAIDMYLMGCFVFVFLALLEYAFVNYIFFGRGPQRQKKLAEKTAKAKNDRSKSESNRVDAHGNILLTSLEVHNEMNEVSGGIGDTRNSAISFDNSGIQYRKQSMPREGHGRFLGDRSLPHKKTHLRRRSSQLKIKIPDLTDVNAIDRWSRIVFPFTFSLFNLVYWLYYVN
T1 sequence (P18507 40-475): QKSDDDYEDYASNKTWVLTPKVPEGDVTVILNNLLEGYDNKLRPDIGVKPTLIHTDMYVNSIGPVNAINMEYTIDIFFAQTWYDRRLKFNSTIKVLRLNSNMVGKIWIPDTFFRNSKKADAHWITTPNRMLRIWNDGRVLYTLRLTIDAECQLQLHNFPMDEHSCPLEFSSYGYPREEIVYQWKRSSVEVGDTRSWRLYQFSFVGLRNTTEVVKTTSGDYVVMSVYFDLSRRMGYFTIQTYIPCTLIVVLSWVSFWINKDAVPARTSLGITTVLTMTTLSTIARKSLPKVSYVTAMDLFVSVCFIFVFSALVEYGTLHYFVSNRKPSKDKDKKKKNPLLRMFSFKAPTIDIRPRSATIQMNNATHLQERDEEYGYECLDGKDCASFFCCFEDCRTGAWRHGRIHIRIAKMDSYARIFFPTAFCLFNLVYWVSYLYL

SMILES	Ki [nM]
COCc1nnc2n1Cc1c(C3=N[C@@H](c4ccc(Cl)cc4)CO3)ncn1-c1ccc(Cl)cc1-2 [Compound 334]	< 100
COCc1nnc2n1Cc1c(C3=N[C@@H](c4cc(F)ccc4F)CO3)ncn1-c1ccc(Cl)cc1-2 [Compound 335]	< 100
COCc1nnc2n1Cc1c(C3=N[C@@H](c4cccc(C(F)(F)F)c4)CO3)ncn1-c1ccc(Cl)cc1-2 [Compound 336]	100 to 1000
COCc1nnc2n1Cc1c(C3=N[C@@H](c4ccc(C(F)(F)F)cc4)CO3)ncn1-c1ccc(Cl)cc1-2 [Compound 337]	< 100
COCc1nnc2n1Cc1c(C3=N[C@@H](c4cccc5ccccc45)CO3)ncn1-c1ccc(Cl)cc1-2 [Compound 338]	< 100
CC#Cc1ncn2c1Cn1c(COC)nnc1-c1cc(Cl)ccc1-2 [Compound 339]	< 100
COCc1nnc2n1Cc1c(C3=N[C@H](c4ccccc4)CO3)ncn1-c1ccc(OC)cc1-2 [Compound 340]	< 100
CCOCc1nnc2n1Cc1c(-c3ncco3)ncn1-c1ccc(Cl)cc1-2 [Compound 341]	< 100
COCc1nnc2n1Cc1c(C3=N[C@@H](c4ccccc4)CO3)ncn1-c1ccc(OC)cc1-2 [Compound 343]	< 100
COc1ccc2c(c1)-n1nncc1Cc1c(-c3ncco3)ncn1-2 [Compound 344]	< 100
CCC#Cc1ncn2c1Cn1c(COC)nnc1-c1cc(Cl)ccc1-2 [Compound 345]	< 100
COCc1nnc2n1Cc1c(C#CCc3ccccc3)ncn1-c1ccc(Cl)cc1-2 [Compound 346]	< 100
COc1ccc2c(c1)-n1nnc(C)c1Cc1c(-c3ncco3)ncn1-2 [Compound 347]	100 to 1000
COCc1nnc2n1Cc1c(-c3nc4ccccc4o3)ncn1-c1ccc(Cl)cc1-2 [Compound 348]	100 to 1000
Clc1ccc2c(c1)-c1nnc(COc3ccccc3)n1Cc1c(-c3ncco3)ncn1-2 [Compound 349]	< 100
Clc1ccc2c(c1)-c1nnc(COCc3ccccc3)n1Cc1c(-c3ncco3)ncn1-2 [Compound 350]	< 100
C#Cc1ncn2c1Cn1c(COCc3ccccc3)nnc1-c1cc(Cl)ccc1-2 [Compound 351]	< 100
CC#Cc1ncn2c1Cn1c(COCc3ccccc3)nnc1-c1cc(Cl)ccc1-2 [Compound 352]	100 to 1000
CC(C)[C@H]1COC(c2ncn3c2Cc2cnnn2-c2cc(Cl)ccc2-3)=N1 [Compound 363]	100 to 1000
CC1(C)COC(c2ncn3c2Cc2cnnn2-c2cc(Cl)ccc2-3)=N1 [Compound 364]	< 100
COc1ccc2c(c1)-n1nncc1Cc1c(C3=N[C@@H](c4ccccc4F)CO3)ncn1-2 [Compound 366]	< 100
COc1ccc2c(c1)-n1nncc1Cc1c(C3=N[C@@H](c4ccc(Cl)cc4)CO3)ncn1-2 [Compound 368]	< 100
COc1ccc2c(c1)-n1nncc1Cc1c(C3=N[C@@H](c4cc(F)ccc4F)CO3)ncn1-2 [Compound 369]	< 100
COc1ccc2c(c1)-n1nncc1Cc1c(C3=N[C@@H](c4cccc5ccccc45)CO3)ncn1-2 [Compound 370]	100 to 1000
COc1ccc2c(c1)-n1nncc1Cc1c(C3=N[C@@H](c4cccc(C(F)(F)F)c4)CO3)ncn1-2 [Compound 371]	100 to 1000
COc1ccc2c(c1)-n1nncc1Cc1c(C3=N[C@@H](c4ccc(C(F)(F)F)cc4)CO3)ncn1-2 [Compound 372]	< 100

SMILES	Ki [nM]
COc1ccc2c(c1)-n1nncc1Cc1c(C3=N[C@@H](c4ccccc4C)CO3)ncn1-2 [Compound 373]	< 100
COc1ccc2c(c1)-n1nncc1Cc1c(C3=N[C@@H](c4ccc(Cl)cc4Cl)CO3)ncn1-2 [Compound 374]	100 to 1000
COc1ccc2c(c1)-n1nncc1Cc1c(C3=N[C@@H](c4ccc(F)c(C(F)(F)F)c4)CO3)ncn1-2 [Compound 375]	< 100
Cc1nnn2c1Cc1c(C3=N[C@@H](c4ccccc4)CO3)ncn1-c1ccc(Cl)cc1-2 [Compound 376]	100 to 1000
Cc1nnn2c1Cc1c(C3=N[C@H](c4ccccc4)CO3)ncn1-c1ccc(Cl)cc1-2 [Compound 377]	< 100
Cc1nnn2c1Cc1c(C3=N[C@@H](c4ccccc4F)CO3)ncn1-c1ccc(Cl)cc1-2 [Compound 378]	100 to 1000
Cc1nnn2c1Cc1c(C3=N[C@@H](c4ccc(F)cc4)CO3)ncn1-c1ccc(Cl)cc1-2 [Compound 379]	100 to 1000
COc1ccc2c(c1)-n1nncc1Cc1c(C3=N[C@@H](C(C)C)CO3)ncn1-2 [Compound 382]	100 to 1000
COc1ccc2c(c1)-n1nncc1Cc1c(C3=NCCO3)ncn1-2 [Compound 383]	< 100
C#Cc1ccc2c(c1)-c1nnc(COC)n1Cc1c(C3=N[C@@H](C(C)C)CO3)ncn1-2 [Compound 384]	100 to 1000
Clc1ccc2c(c1)-n1nncc1Cc1c(-c3nc(-c4ccccc4)co3)ncn1-2 [Compound 385]	< 100
FC(F)(F)c1ccc(-c2coc(-c3ncn4c3Cc3cnnn3-c3cc(Cl)ccc3-4)n2)cc1 [Compound 386]	> 1000
CC(C)c1coc(-c2ncn3c2Cc2cnnn2-c2cc(Cl)ccc2-3)n1 [Compound 387]	< 100
COc1ccc2c(c1)-n1nncc1Cc1c(-c3nc(-c4ccccc4)co3)ncn1-2 [Compound 388]	< 100
COc1ccc2c(c1)-n1nncc1Cc1c(-c3nc(-c4cccc(C(F)(F)F)c4)co3)ncn1-2 [Compound 389]	> 1000
COc1ccc2c(c1)-n1nncc1Cc1c(-c3nc(-c4ccc(C(F)(F)F)cc4)co3)ncn1-2 [Compound 390]	> 1000
COc1ccc2c(c1)-n1nncc1Cc1c(-c3nc(-c4ccc(F)c(C(F)(F)F)c4)co3)ncn1-2 [Compound 392]	100 to 1000
Clc1ccc2c(c1)-n1nncc1Cc1c(-c3ncco3)ncn1-2 [Compound 393]	< 100
COc1ccc2c(c1)-n1nncc1Cc1c(-c3nc(C(C)C)co3)ncn1-2 [Compound 394]	< 100
Clc1ccc2c(c1)-n1nncc1Cc1c(C#Cc3ccccc3)ncn1-2 [Compound 395]	< 100
Cc1ccccc1C#Cc1ncn2c1Cc1cnnn1-c1cc(Cl)ccc1-2 [Compound 396]	< 100
COc1ccc(C#Cc2ncn3c2Cc2cnnn2-c2cc(Cl)ccc2-3)cc1 [Compound 397]	< 100
FC(F)(F)CC#Cc1ncn2c1Cc1cnnn1-c1cc(Cl)ccc1-2 [Compound 398]	< 100
Fc1ccccc1C#Cc1ncn2c1Cc1cnnn1-c1cc(Cl)ccc1-2 [Compound 399]	< 100
Clc1ccc2c(c1)-n1nncc1Cc1c(C#Cc3ccccn3)ncn1-2 [Compound 401]	< 100
Clc1ccc2c(c1)-n1nncc1Cc1c(C#Cc3cccnc3)ncn1-2 [Compound 402]	< 100

SMILES	Ki [nM]
C#Cc1ncn2c1Cc1cnnn1-c1cc(OC)ccc1-2 [Compound 403]	< 100
COc1ccc2c(c1)-n1nncc1Cc1c(C#Cc3ccccc3)ncn1-2 [Compound 404]	< 100
COc1ccc2c(c1)-n1nncc1Cc1c(C#Cc3ccccc3C)ncn1-2 [Compound 405]	< 100
COc1ccc2c(c1)-n1nncc1Cc1c(C#Cc3ccc(C(F)(F)F)cc3)ncn1-2 [Compound 406]	< 100
COc1ccc2c(c1)-n1nncc1Cc1c(C#Cc3cccnc3)ncn1-2 [Compound 407]	< 100
COc1ccc2c(c1)-n1nncc1Cc1c(C#Cc3ccccn3)ncn1-2 [Compound 408]	< 100
COc1cccc(C#Cc2ncn3c2Cc2cnnn2-c2cc(OC)ccc2-3)c1 [Compound 409]	< 100
CC#Cc1ncn2c1Cc1cnnn1-c1cc(OC)ccc1-2 [Compound 410]	< 100
COc1ccc2c(c1)-n1nncc1Cc1c(C#Cc3ccccc3F)ncn1-2 [Compound 411]	< 100
COc1ccc2c(c1)-n1nncc1Cc1c(C#Cc3ccc(OC(F)(F)F)cc3)ncn1-2 [Compound 412]	< 100
COc1ccc2c(c1)-n1nncc1Cc1c(C#CCc3ccccc3)ncn1-2 [Compound 413]	< 100
COc1ccc(C#Cc2ncn3c2Cc2cnnn2-c2cc(OC)ccc2-3)cc1 [Compound 414]	< 100
CC(C)C#Cc1ncn2c1Cc1cnnn1-c1cc(Cl)ccc1-2 [Compound 415]	< 100
CC#Cc1ncn2c1Cc1cnnn1-c1cc(Cl)ccc1-2 [Compound 416]	< 100
COc1ccc2c(c1)-n1nncc1Cc1c(C#CCc3cccc(Cl)c3)ncn1-2 [Compound 417]	< 100
COc1ccc2c(c1)-n1nncc1Cc1c(C#CCc3cccc(OC(F)(F)F)c3)ncn1-2 [Compound 418]	< 100
COc1ccc2c(c1)-n1nncc1Cc1c(C#CCc3cccc(F)c3)ncn1-2 [Compound 419]	< 100
COc1ccc2c(c1)-n1nncc1Cc1c(C#CCc3ccccc3OC(F)(F)F)ncn1-2 [Compound 420]	< 100
COCc1nnc2n1Cc1c(C#CCc3cccc(F)c3)ncn1-c1ccc(Cl)cc1-2 [Compound 421]	< 100
COCc1nnc2n1Cc1c(C#CCc3cccc(Cl)c3)ncn1-c1ccc(Cl)cc1-2 [Compound 422]	< 100
COCc1nnc2n1Cc1c(C#CCc3cccc(OC(F)(F)F)c3)ncn1-c1ccc(Cl)cc1-2 [Compound 423]	< 100
COc1ccc2c(c1)-n1nncc1Cc1c(C#CC(C)C)ncn1-2 [Compound 424]	< 100
Cc1noc(-c2ncn3c2Cc2cnnn2-c2cc(Cl)ccc2-3)n1 [Compound 425]	< 100
CC(C)c1noc(-c2ncn3c2Cc2cnnn2-c2cc(Cl)ccc2-3)n1 [Compound 426]	< 100
COCc1nnc2n1Cc1c(-c3noc(C)n3)ncn1-c1ccc(Cl)cc1-2 [Compound 427]	< 100

Same assay, conditions: inhibition of [3H]Ro15-1788 binding; reported as ranges

SMILES	Ki [nM]
COCc1nnc2n1Cc1c(COc3ccccc3)ncn1-c1ccc(Cl)cc1-2 [Compound 429]	> 1000
COCc1nnc2n1Cc1c(COCc3ccccc3)ncn1-c1ccc(Cl)cc1-2 [Compound 430]	> 1000
COCc1nnc2n1Cc1c(COCc3ccccc3F)ncn1-c1ccc(Cl)cc1-2 [Compound 431]	> 1000
